Experimental data published in patent US20150344426A1, “COMPOUNDS AND THERAPEUTIC USES THEREOF” (ALZHEIMER'S INSTITUTE OF AMERICA, INC., priority 2012, published 2015).

Assays:
[1] = Stability in mouse plasma; assay type: in vitro ADME; conditions: read-out: Mouse Plasma t1/2
Protocol: (§1) Relative stability of Example Compound Nos. 1 through 60 in mouse plasma and mouse liver microsomal preparations.
(§2) Certain Example Compounds were each added to a final concentration of 1 μM to 1 mL of each of mouse plasma and mouse liver microsomal preparations (with and without 1 mM NADPH). Stability assays were run in duplicate and were sampled at 0, 5, 15, 30, 60 and 120 minutes as follows: one hundred microliter aliquots of samples were removed at the specified sampling times, and the reaction was quenched with 400 μL of acetonitrile.
(§3) Samples were analyzed by HPLC-ESI-MS/MS by measuring the peak area of both the starting Example Compound and parent compound (i.e., either Parent Compound A or Parent Compound B) that were created by removal of the Prodrug Moiety (as defined in Section 6 herein).

[2] = Stability in mouse liver microsomal preparations; assay type: in vitro ADME; conditions: liver microsomes, with and without 1 mM NADPH (not said which), read-out: Mouse Liver Microsomes t1/2
Protocol: as §1, §2, §3

[3] = Stability assessment / semi-quantitative hygroscopicity in a relative humidity (RH) chamber; assay type: physicochemical; conditions: solid in RH chamber; morphology and parent:prodrug composition
Protocol: “ND” in Table 2 refers to “No Data”. Purity was determined by HPLC. Melting point was determined by differential scanning calorimetry (“DSC”), and semi-quantitative hygroscopicity was determined in a relative humidity (“RH”) chamber.

[4] = tested on: HT1080 human fibrosarcoma cancer cells; test: Anti-tumor activity in HT1080 human fibrosarcoma xenograft with twice daily dosing; assay type: in vivo; conditions: for animals euthanized due to tumor volume exceeding 1,500 mm^3 / animals died: Example Compound 42 study, cohort of ten; for anti-tumor activity in the HT1080 xenograft model (summary statement): administered orally, twice daily
Protocol: One million HT1080 cells were implanted subcutaneously in the right flank of female nude mice (Crl:NU-Fox1^nu). When the median tumor volume (MTV) was approximately 209 mm^3, mice were randomized into four cohorts of ten animals. […] All cohorts were dosed twice daily for 7 days. The mice were observed daily for mortality and signs of toxicity. Tumor volumes and body weights were determined from Days 1 to 22. The results are depicted in FIG. 4.

[5] = Example Compounds 44/45 study, 12 mg/kg twice daily for 7 days, Day 9

| Structure (SMILES) | half-life at 1 µM [1] [min] | half-life at 1 µM [2] [min] | Stability at 60° C. and 75% RH [3] | Stability at 40° C. and 75% RH [3] | also measured |
| --- | --- | --- | --- | --- | --- |
| CC(=O)OC(C)[n+]1cccc(CNC(=O)Nc2ccc(OCCc3ccccc3-c3ccccc3)cc2)c1 (stereo not shown) [Example 37, 1-[1-(Acetyloxy)ethyl]-3-{[({4-[2-(biphenyl-2-yl)ethoxy]phenyl}carbamoyl)amino]methyl}pyridinium] | > 5 | 18.7 | Deliquesced at 2 Hr No change in composition | Deliquesced at 2 Hr No change in composition | – |
| CC(=O)OC(C(C)C)[n+]1cccc(CNC(=O)Nc2ccc(OCCc3ccccc3-c3ccccc3)cc2)c1 (stereo not shown) [Example 38, 1-[1-(Acetyloxy)-2-methylpropyl]-3-{[({4-[2-(biphenyl-2-yl)ethoxy]phenyl}carbamoyl)amino]methyl}pyridinium] | > 5 | 30.9 | Deliquesced at 4 days | No change in morphology at 7 days | – |
| CC(OC(=O)C(C)(C)C)[n+]1cccc(CNC(=O)Nc2ccc(OCCc3ccccc3-c3ccccc3)cc2)c1 (stereo not shown) [Example 39, 3-{[({4-[2-(Biphenyl-2-yl)ethoxy]phenyl}carbamoyl)amino]methyl}-1-{1-[(2,2-dimethylpropanoyl)oxy]ethyl}pyridinium] | 27 | 113 | Deliquesced at 2 Hr No change in composition | Deliquesced at 2 Hr No change in composition | – |
| CC(OC(=O)c1ccccc1)[n+]1cccc(CNC(=O)Nc2ccc(OCCc3ccccc3-c3ccccc3)cc2)c1 (stereo not shown) [Example 42, 1-[1-(Benzoyloxy)ethyl]-3-{[({4-[2-(biphenyl-2-yl)ethoxy]phenyl}carbamoyl)amino]methyl}pyridinium] | – | – | Deliquesced at 13 days, approx 40:60 parent to prodrug observed | No change in morphology at 14 days, only prodrug observed | MTV increase ([4]; 4 mg/kg twice daily for 7 days, Day 8): 131%; tumor growth inhibition ([4]; 4 mg/kg twice daily for 7 days, end of dosing, Day 8): 21%; MTV increase ([4]; 4 mg/kg twice daily for 7 days, end of the study, Day 15): 469%; MTV increase ([4]; 6 mg/kg twice daily for 7 days, Day 8): 87%; tumor growth inhibition ([4]; 6 mg/kg twice daily for 7 days, end of dosing, Day 8): 48%; MTV increase ([4]; 6 mg/kg twice daily for 7 days, end of the study, Day 15): 215%; MTV decrease ([4]; 8 mg/kg twice daily for 7 days, Day 8): 4%; tumor regression ([4]; 8 mg/kg twice daily for 7 days, end of dosing, Day 8): 4%; MTV increase ([4]; 8 mg/kg twice daily for 7 days, end of the study, Day 15): 449%; MTV decrease ([4]; 12 mg/kg twice daily for 7 days, Day 8): 38%; tumor regression ([4]; 12 mg/kg twice daily for 7 days, end of dosing, Day 8): 38%; MTV increase ([4]; 12 mg/kg twice daily for 7 days, end of the study, Day 15): 236%; animals euthanized due to tumor volume exceeding 1,500 mm^3 ([4]; 4 mg/kg): three; animals died ([4]; 6 mg/kg): One; animals euthanized due to tumor volume exceeding 1,500 mm^3 ([4]; 6 mg/kg): one; animals died ([4]; 8 mg/kg): One; animals euthanized due to tumor volume exceeding 1,500 mm^3 ([4]; 8 mg/kg): two; animals died ([4]; 12 mg/kg): One; anti-tumor activity in the HT1080 xenograft model (summary statement) ([4]; all doses tested): dose-dependent anti-tumor activity |
| CC(=O)OC[C@@H]1CCCN1C(=O)OC[n+]1cccc(CNC(=O)Nc2ccc(OCCc3ccccc3-c3ccccc3)cc2)c1 [Example 45, 1-{[({(2S)-2-[(Acetyloxy)methyl]pyrrolidin-1-yl}carbonyl)oxy]methyl}-3-{[({4-[2-(biphenyl-2-yl)ethoxy]phenyl}carbamoyl)amino]methyl}pyridinium] | > 5 | > 5 | – | – | MTV decrease [4, 5]: 54%; tumor regression [4, 5]: 54%; tumor growth inhibition relative to vehicle ([4]; Example Compounds 44/45 study, 12 mg/kg twice daily for 7 days, Day 22): 91%; MTV increase ([4]; Example Compounds 44/45 study, 12 mg/kg twice daily for 7 days, end of the study, Day 22): 33%; anti-tumor activity in the HT1080 xenograft model (summary statement) ([4]; all doses tested): significant anti-tumor activity; Tolerability ([4]; xenograft mice, all doses tested, orally twice daily): well tolerated |
| O=C(NCc1ccc[n+](COC(=O)N2CCC[C@H]2CO)c1)Nc1ccc(OCCc2ccccc2-c2ccccc2)cc1 [Example 46, 3-{[({4-[2-(Biphenyl-2-yl)ethoxy]phenyl}carbamoyl)amino]methyl}-1-[({[(2S)-2-(hydroxymethyl)pyrrolidin-1-yl]carbonyl}oxy)methyl]pyridinium] | 87.2 | 1250 | – | – | – |
| CC(C)C(=O)OC(C)[n+]1cccc(CNC(=O)Nc2ccc(OCCc3ccccc3-c3ccccc3)cc2)c1 (stereo not shown) [Example 47, 3-{[({4-[2-(Biphenyl-2-yl)ethoxy]phenyl}carbamoyl)amino]methyl}-1-{1-[(2-methylpropanoyl)oxy]ethyl}pyridinium] | – | – | Approximately 45:55 parent to prodrug observed after 14 days | No change in morphology at 14 days, only prodrug observed | – |
| COC(=O)CNC(=O)OC[n+]1cccc(CNC(=O)Nc2ccc(OCCc3ccccc3-c3ccccc3)cc2)c1 [Example 48, Methyl N-{[(3-{[({4-[2-(biphenyl-2-yl)ethoxy]phenyl}carbamoyl)amino]methyl}pyridinium-1-yl)methoxy]carbonyl}glycinate] | – | – | Deliquesced at 2 hr No decomposition observed | Deliquesced at 2 hr No decomposition observed | – |
| COC(=O)CN(C)C(=O)OC[n+]1cccc(CNC(=O)Nc2ccc(OCCc3ccccc3-c3ccccc3)cc2)c1 [Example 50, Methyl N-{[(3-{[({4-[2-(biphenyl-2-yl)ethoxy]phenyl}carbamoyl)amino]methyl}pyridinium-1-yl)methoxy]carbonyl}-N-methylglycinate] | – | – | Oiled out at 2 days No decomposition observed | No change in morphology at 14 days, only prodrug observed | – |

Continued, in another order:

| half-life at 1 µM [1] [min] | half-life at 1 µM [2] [min] | Stability at 60° C. and 75% RH [3] | Structure (SMILES) | Stability at 40° C. and 75% RH [3] | also measured |
| --- | --- | --- | --- | --- | --- |
| – | – | Deliquesced at 7 days | COC(=O)CCNC(=O)OC[n+]1cccc(CNC(=O)Nc2ccc(OCCc3ccccc3-c3ccccc3)cc2)c1 [Example 49, Methyl N-{[(3-{[({4-[2-(biphenyl-2-yl)ethoxy]phenyl}carbamoyl)amino]methyl}pyridinium-1-yl)methoxy]carbonyl}-beta-alaninate] | Deliquesced at 24 hrs No decomposition observed | – |
| – | – | All prodrug decomposed to parent at 24 h | O=C(NCc1ccc[n+](COC(=O)c2cccnc2)c1)Nc1ccc(OCCc2ccccc2-c2ccccc2)cc1 [Example 53, 3-{[({4-[2-(Biphenyl-2-yl)ethoxy]phenyl)carbamoyl)amino]methyl}-1-{[(pyridin-3-ylcarbonyl)oxy]methyl}pyridinium] | – | – |
| – | – | Deliquesced at 4 days | COC(=O)CCC(=O)OC[n+]1cccc(CNC(=O)Nc2ccc(OCCc3ccccc3-c3ccccc3)cc2)c1 [Example 54, 3-{[({4-[2-(Biphenyl-2-yl)ethoxy]phenyl}carbamoyl)amino]methyl}-1-{[(4-methoxy-4-oxobutanoyl)oxy]methyl}pyridinium] | – | – |
| – | – | Deliquesced at 4 h | O=C(NCc1ccc[n+](COC(=O)c2ccccc2O)c1)Nc1ccc(OCCc2ccccc2-c2ccccc2)cc1 [Example 55, 3-{[({4-[2-(Biphenyl-2-yl)ethoxy]phenyl}carbamoyl)amino]methyl}-1-{[(2-hydroxybenzoyl)oxy]methyl}pyridinium] | Deliquesced at 4 h | – |
| – | – | Deliquesced at 4 h | O=C(NCc1ccc[n+](COC(=O)N2CCCC2)c1)Nc1ccc(OCCc2ccccc2-c2ccccc2)cc1 [Example 59, 3-{[({4-[2-(Biphenyl-2-yl)ethoxy]phenyl}carbamoyl)amino]methyl}-1-{[(pyrrolidin-1-ylcarbonyl)oxy]methyl}pyridinium] | – | – |
| – | – | Deliquesced at 4 h | O=C(NCc1ccc[n+](COC(=O)N2CCOCC2)c1)Nc1ccc(OCCc2ccccc2-c2ccccc2)cc1 [Example 60, 3-{[({4-[2-(Biphenyl-2-yl)ethoxy]phenyl}carbamoyl)amino]methyl}-1-{[(morpholin-4-ylcarbonyl)oxy]methyl}pyridinium] | Deliquesced at 4 h | – |
